US20220088004A1, “COMPOSITION FOR COMPETITIVE INHIBITION OF OREXIN RECEPTORS” (SUNTORY HOLDINGS LIMITED, priority 2019, published 2022)

Key:
[1] = test system: orexin receptor; conditions: injection; amyloid precursor protein transgenic mice; cited from earlier work
[2] = test system: HEK293T cells; experiment: WST-8 Cell Proliferation Assay (dehydrogenase activity, cell growth); type: cell-based; conditions: 100 μg/mL, HEK293T cells of Example 1; compared to positive and negative control; FIG. 2
Procedure: For the pyrroloquinoline quinone disodium salt-added group in Example 1, WST-8 Cell Proliferation Assay Kit (Cayman Chemical Company) was used to confirm the cell growth after addition of pyrroloquinoline quinone disodium salt. The measurement was performed by a method according to an attached protocol. The dehydrogenase activity is known to be in proportion to the number of live cells. The kit utilizes this principle and measures the dehydrogenase activity released in the medium from the cells.

[3] = molecular target: Orexin 2 Receptor (Homo sapiens, UniProt O43614); conditions: 100 μg/mL test substance, 1 h pre-incubation, then 50 nM orexin-A for 24 hours; HEK293T cells; n=3; FIG. 1
Procedure: The orexin receptor antagonist activity of a test substance was measured using an accessory to Orexin 2 Receptor Reporter Assay Kit (Cayman Chemical Company).
In this evaluation system, cells that express orexin receptors at cell surfaces are used. Binding of the agonist (orexin) to the orexin receptor causes secretion of secreted alkaline phosphatase (SEAP). Secreted SEAP is reacted with an alkaline phosphatase substrate, and the enzyme activity of SEAP is measured using a luminometer. A substance having orexin receptor antagonist action reduces the enzyme activity.
(1) HEK293T cells were prepared at a concentration of 2.5×10^5 cells/mL using Dulbecco's modified Eagle medium (high glucose content) (Dulbecco's Modified Eagle's Medium-high glucose, with 4500 mg/L glucose, L-glutamine, sodium pyruvate, and sodium bicarbonate, liquid, sterile-filtered, suitable for cell culture) (Sigma-Aldrich) to which fetal bovine serum (FBS) was added to a final concentration of 10%.
(2) The medium containing HEK293T cells prepared in (1) was seeded at 200 μL per well in Orexin 2 Receptor Reverse Transfection Strip Plate.
(3) Incubation was performed at 5% CO2 and 37° C. for 16 hours. […]
(7) The enzyme (SEAP) activity of the supernatant was measured in accordance with a protocol attached to Orexin 2 Receptor Reporter Assay Kit (Cayman Chemical Company). […]

[4] = test system: orexin receptor; conditions: during glucose tolerance test; cited from earlier work
[5] = test system: orexin receptor; conditions: intake of suvorexant; cited from earlier work

Orexin 2 Receptor, sequence (O43614 whole entry): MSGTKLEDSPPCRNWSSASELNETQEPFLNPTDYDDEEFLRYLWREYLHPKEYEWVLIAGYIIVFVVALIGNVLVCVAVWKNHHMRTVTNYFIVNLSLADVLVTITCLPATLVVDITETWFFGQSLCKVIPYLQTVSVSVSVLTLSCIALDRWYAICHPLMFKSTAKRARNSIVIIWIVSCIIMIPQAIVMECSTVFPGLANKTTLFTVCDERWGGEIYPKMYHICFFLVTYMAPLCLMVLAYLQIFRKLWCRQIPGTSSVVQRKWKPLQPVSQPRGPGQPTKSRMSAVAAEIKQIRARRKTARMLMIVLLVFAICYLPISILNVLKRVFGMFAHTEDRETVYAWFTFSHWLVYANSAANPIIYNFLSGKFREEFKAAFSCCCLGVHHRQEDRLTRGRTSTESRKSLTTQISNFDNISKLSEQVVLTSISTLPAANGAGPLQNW

In the case of `CNC(=O)[C@@H](c1ccccc1)N1CCc2cc(OC)c(OC)cc2[C@@H]1CCc1ccc(C(F)(F)F)cc1` [almorexant], the “amyloid β level and amyloid plaque formation” value [1] is given as “decrease in amyloid β level and in amyloid plaque formation”.

For `O=C(O)c1cc(C(=O)O)c2c(n1)C(=O)C(=O)c1cc(C(=O)O)[nH]c1-2.[Na].[Na]` [pyrroloquinoline quinone disodium salt], the “number of cells (dehydrogenase activity relative to negative control)” value [2] was “did not show a decrease in the number of cells” and the “orexin receptor antagonist action (SEAP enzyme activity relative to negative control)” value [3] was “orexin receptor antagonist action equivalent to that exerted by addition of 1 μM suvorexant”.

For `Cc1ccc(-n2nccn2)c(C(=O)N2CCN(c3nc4cc(Cl)ccc4o3)CC[C@H]2C)c1` [suvorexant], the “rise in blood sugar levels” value [4] is listed as “suppressing the rise in blood sugar levels” and the “sleep latency, wake after sleep onset, total sleep duration, sleep efficiency” value [5] is listed as “decreased sleep latency and objective wake after sleep onset and have increased total sleep duration and sleep efficiency”.
